Counter-ions that a name gives are not always drawn.
Columns and labels:
HCT-116 cell line = assay: Inhibition of cell growth, MTT tetrazolium salt assay; assay type: cell-based; conditions: for IC50: Homo sapiens, HCT-116, 120 h, MTT, three to five days
In short: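 HCT-116 cells in McCoy's 5A were dosed 4 h after plating with compounds in 0.5% DMSO and grown 3–5 days at 37 °C. Then 0.2 mg/mL MTT was added for 4 h and formazan absorbance read at 540 nm. IC50/IC90 came from semi-log plots against DMSO-only controls.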

CDK2/cyclin A = target: T1, CDK2/cyclin A (Homo sapiens, UniProt P24941); assay: Inhibition of CDK2/cyclin A retinoblastoma kinase activity (Ki; % inhibition); assay type: biochemical; conditions: for Ki: apparent Ki, CDK2/cyclin A, Rb substrate
T1 construct: made in house; host or cells: CDK2: insect cells (baculovirus); cyclin A: E. coli
In short: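 Apparent Ki values came from fitting concentration-dependent activity data to competitive (or competitive tight-binding) models, and % inhibition from single 30 nM screens of library compounds. Activity was measured as ³²P/³³P incorporation from 25 μM ATP into an Rb substrate by 10 or 19 nM CDK2/delta cyclin A at 30 °C over 60–75 min, pH 7.4.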

human CDK4/cyclin D3 = target: T2, human CDK4/cyclin D3 (Homo sapiens, UniProt P11802); assay: Inhibition of CDK4/cyclin D retinoblastoma kinase activity (Ki; % inhibition); assay type: biochemical; conditions: for Ki: apparent Ki, CDK4/cyclin D3, Rb substrate
T2 construct: made in house; host or cells: insect cells co-infected with baculovirus vectors
T2 sequence (P11802 whole entry): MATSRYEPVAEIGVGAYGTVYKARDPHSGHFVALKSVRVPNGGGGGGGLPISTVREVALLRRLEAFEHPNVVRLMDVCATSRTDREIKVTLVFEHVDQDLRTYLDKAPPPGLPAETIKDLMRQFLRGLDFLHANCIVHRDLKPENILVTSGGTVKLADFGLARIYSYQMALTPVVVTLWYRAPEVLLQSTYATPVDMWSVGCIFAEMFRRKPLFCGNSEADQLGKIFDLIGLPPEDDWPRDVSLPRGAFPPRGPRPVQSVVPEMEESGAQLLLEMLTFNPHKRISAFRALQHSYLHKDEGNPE
T2 sequence (P30281 1-264 partner limits assumed): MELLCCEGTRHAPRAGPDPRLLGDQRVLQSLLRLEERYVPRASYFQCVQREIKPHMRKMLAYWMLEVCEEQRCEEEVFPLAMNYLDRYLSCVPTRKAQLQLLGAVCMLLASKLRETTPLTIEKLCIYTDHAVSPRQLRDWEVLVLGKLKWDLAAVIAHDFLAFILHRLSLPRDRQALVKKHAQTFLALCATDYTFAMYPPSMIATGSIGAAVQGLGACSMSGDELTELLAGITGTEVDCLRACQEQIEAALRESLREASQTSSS
In short: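 Radiometric filter-binding read-out: Rb residues 386-928 phosphorylated by 5 nM CDK4/cyclin D3(1-264) from baculovirus-infected insect cells, 25 μM ATP, HEPES pH 7.4, 30 °C. Run 20 min, or 60 min for tight-binding inhibitors. Screening at 30 nM theoretical compound; apparent Ki by competitive-inhibition fitting.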

[1] = HCT-116 cells, 0.25 μM compound

Row | Compound | CDK2 % Inhibition at 0.03 μM (CDK2/cyclin A; at 0.03 μM) | CDK4 % Inhibition at 0.03 μM (human CDK4/cyclin D3; at 0.03 μM) | CDK2 % Inhibition at 0.03 μM (CDK2/cyclin A; 0.03 μM compound) | CDK4 % Inhibition at 0.03 μM (human CDK4/cyclin D3; 0.03 μM compound) | HCT-116 % Inhibition at 0.25 μM (HCT-116 cell line; HCT-116, at 0.25 μM) | HCT-116 % Inhibition at 0.1 μM (HCT-116 cell line; HCT-116 cells, 0.1 μM compound) | HCT-116 % Inhibition at 0.25 μM (HCT-116 cell line; [1]) | further results
1 | Nc1nc(Nc2ccc(C(=O)NC3CCN(Cc4ccccc4)CC3)cc2)sc1C(=O)c1c(F)cccc1F [Example A13, 4-[4-Amino-5-(2,6-difluoro-benzoyl)-thiazol-2-ylamino]-N-(1-benzyl-piperidin-4-yl)-benzamide] |  |  |  |  |  |  |  | IC50 (HCT-116 cell line): 210 nM; Ki (CDK2/cyclin A): 79 nM; Ki (human CDK4/cyclin D3): 9 nM
2 | CC(C)C(CO)NC(=O)c1ccc(Nc2nc(N)c(C(=O)c3c(F)cccc3F)s2)cc1 (stereo not shown) [Example G102] | −3% | 18% |  |  | 55% |  |  | HCT-116 % Inhibition at 0.1 μM (HCT-116 cell line; HCT-116, at 0.1 μM): 18%
3 | CCN(CC)C(=O)c1ccc(Nc2nc(N)c(C(=O)c3c(F)cccc3F)s2)cc1 [Example C232] |  |  | 9% | 19% |  | 9% | 53% | 
4 | CC(CCc1ccccc1)NC(=O)c1ccc(Nc2nc(N)c(C(=O)c3c(F)cccc3F)s2)cc1 (stereo not shown) [Example G133] | −6% | 13% |  |  | 47% |  |  | HCT-116 % Inhibition at 0.1 μM (HCT-116 cell line; HCT-116, at 0.1 μM): 0%
5 | CC(C)CCCC(C)NC(=O)c1ccc(Nc2nc(N)c(C(=O)c3c(F)cccc3F)s2)cc1 (stereo not shown) [Example G141] | 0% | 11% |  |  | 50% |  |  | HCT-116 % Inhibition at 0.1 μM (HCT-116 cell line; HCT-116, at 0.1 μM): 0%
6 | Cc1ccsc1C(=O)c1sc(Nc2ccc(C(=O)NC[C@@H]3CCCN3C)cc2)nc1N [Example A70, 4-{4-Amino-5-[1-(3-methyl-thiophen-2-yl)-methanoyl]-thiazol-2-ylamino}-N-(1-methyl-pyrrolidin-2S-ylmethyl)-benzamide] |  |  |  |  |  |  |  | IC50 (HCT-116 cell line): 23 nM; Ki (CDK2/cyclin A): 6.1 nM; Ki (human CDK4/cyclin D3): 128 nM
7 | CC(C)N(CCNC(=O)c1ccc(Nc2nc(N)c(C(=O)c3c(F)cccc3F)s2)cc1)C(C)C [Example A23, 4-[4-Amino-5-(2,6-difluoro-benzoyl)-thiazol-2-ylamino]-N-(2-diisopropylamino-ethyl)-benzamide] |  |  |  |  |  |  |  | IC50 (HCT-116 cell line): 100 nM; Ki (CDK2/cyclin A): 130 nM; Ki (human CDK4/cyclin D3): 8 nM
8 | Cn1cnc(CNC(=O)c2ccc(Nc3nc(N)c(C(=O)c4c(F)cccc4F)s3)cc2)c1 [Example A63, 4-[4-Amino-5-(2,6-difluoro-benzoyl)-thiazol-2-ylamino]-N-(1-methyl-imidazol-4-yl-methyl)-benzamide Trifluoroacetic Acid Salt] |  |  |  |  |  |  |  | IC50 (HCT-116 cell line): 1600 nM; Ki (CDK2/cyclin A): 15.3 nM; Ki (human CDK4/cyclin D3): 18 nM
9 | Nc1nc(Nc2ccc(C(=O)Nc3cc(F)cc(F)c3)cc2)sc1C(=O)c1c(F)cccc1F [Example G68] | 6% | 3% |  |  | 59% |  |  | 
10 | Nc1nc(Nc2ccc(C(=O)N3CCN(C=O)CC3)cc2)sc1C(=O)c1c(F)cccc1F [Example G78] | 11% | 13% |  |  | 58% |  |  | 
11 | CN(C)CCN(C)C(=O)c1ccc(Nc2nc(N)c(C(=O)c3c(F)cccc3F)s2)cc1 [Example G57] | 17% | 19% |  |  | 51% |  |  | 
12 | CC(=O)NCCNC(=O)c1ccc(Nc2nc(N)c(C(=O)c3c(F)cccc3F)s2)cc1 [Example G142] | 11% | 20% |  |  | 46% |  |  | HCT-116 % Inhibition at 0.1 μM (HCT-116 cell line; HCT-116, at 0.1 μM): 0%
13 | Nc1nc(Nc2ccc(C(=O)NC[C@@H]3CCCN3)cc2)sc1C(=O)c1c(F)cccc1F [Example A8, 4-[4-Amino-5-(2,6-difluoro-benzoyl)-thiazol-2-ylamino]-N-(pyrrolidin-2S-yl-methyl)-benzamide] |  |  |  |  |  |  |  | IC50 (HCT-116 cell line): 740 nM; Ki (CDK2/cyclin A): 54 nM; Ki (human CDK4/cyclin D3): 5 nM
14 | COc1ccc(NC(=O)c2ccc(Nc3nc(N)c(C(=O)c4c(F)cccc4F)s3)cc2)cc1Cl [Example G59] | 25% | 3% |  |  | 53% |  |  | 

Second part, led by results:

Row | CDK2 % Inhibition at 0.03 μM (CDK2/cyclin A; at 0.03 μM) | CDK4 % Inhibition at 0.03 μM (human CDK4/cyclin D3; at 0.03 μM) | CDK2 % Inhibition at 0.03 μM (CDK2/cyclin A; 0.03 μM compound) | CDK4 % Inhibition at 0.03 μM (human CDK4/cyclin D3; 0.03 μM compound) | Compound | HCT-116 % Inhibition at 0.25 μM (HCT-116 cell line; HCT-116, at 0.25 μM) | HCT-116 % Inhibition at 0.1 μM (HCT-116 cell line; HCT-116 cells, 0.1 μM compound) | HCT-116 % Inhibition at 0.25 μM (HCT-116 cell line; [1]) | further results
15 | 10% | 18% |  |  | CC(=O)c1cccc(NC(=O)c2ccc(Nc3nc(N)c(C(=O)c4c(F)cccc4F)s3)cc2)c1 [Example G189] | 56% |  |  | HCT-116 % Inhibition at 0.1 μM (HCT-116 cell line; HCT-116, at 0.1 μM): 13%
16 |  |  | 2% | 21% | CC(C)NC(=O)CN1CCN(C(=O)c2ccc(Nc3nc(N)c(C(=O)c4c(F)cccc4F)s3)cc2)CC1 [Example G335] |  | 3% | 42% | 
17 |  |  | −3% | −1% | COc1ccc(CCN(C)C(=O)c2ccc(Nc3nc(N)c(C(=O)c4c(F)cccc4F)s3)cc2)cc1OC [Example G361] |  | 26% | 48% | 
18 |  |  | 39% | 40% | Nc1nc(Nc2ccc(C(=O)NCc3ccco3)cc2)sc1C(=O)c1c(F)cccc1F [Example G249] |  | 37% | 80% | 
19 |  |  | 8% | 0% | Cc1cc(NC(=O)c2ccc(Nc3nc(N)c(C(=O)c4c(F)cccc4F)s3)cc2)no1 [Example G393] |  | 8% | 46% | 
20 |  |  | 4% | 0% | Cc1ccc(NC(=O)c2ccc(Nc3nc(N)c(C(=O)c4c(F)cccc4F)s3)cc2)nc1 [Example G352] |  | 24% | 64% | 
21 |  |  | 1% | 37% | CCCCN(CC)CCNC(=O)c1ccc(Nc2nc(N)c(C(=O)c3c(F)cccc3F)s2)cc1 [Example G331] |  | 54% | 93% | 
22 |  |  | 13% | 23% | Nc1nc(Nc2ccc(C(=O)NCCCc3ccccc3)cc2)sc1C(=O)c1c(F)cccc1F [Example G325] |  | 6% | 51% | 
23 |  |  | 39% | 39% | Cc1ccc(CNC(=O)c2ccc(Nc3nc(N)c(C(=O)c4c(F)cccc4F)s3)cc2)o1 [Example G250] |  | 31% | 72% | 
24 | 25% | 20% |  |  | CC(NC(=O)c1ccc(Nc2nc(N)c(C(=O)c3c(F)cccc3F)s2)cc1)c1ccccc1 (stereo not shown) [Example G162] | 84% |  |  | HCT-116 % Inhibition at 0.1 μM (HCT-116 cell line; HCT-116, at 0.1 μM): 3%
25 |  |  | −2% | 17% | Nc1nc(Nc2ccc(C(=O)NCC(O)CO)cc2)sc1C(=O)c1c(F)cccc1F (stereo not shown) [Example G279] |  | 2% | 52% | 
26 |  |  | 0% | 20% | N#CCCN(Cc1ccccc1)C(=O)c1ccc(Nc2nc(N)c(C(=O)c3c(F)cccc3F)s2)cc1 [Example G304] |  | 15% | 54% | 
27 |  |  | 9% | 16% | CCN(Cc1ccccc1)C(=O)c1ccc(Nc2nc(N)c(C(=O)c3c(F)cccc3F)s2)cc1 [Example G209] |  | 9% | 50% | 
28 |  |  | 3% | −3% | Nc1nc(Nc2ccc(C(=O)Nc3ccc(C(F)(F)F)cc3)cc2)sc1C(=O)c1c(F)cccc1F [Example G368] |  | 25% | 50% | 

Reference: patent US6720346B2, “Thiazole benzamide derivatives and pharmaceutical compositions for inhibiting cell proliferation” (Agouron Pharmaceuticals, Inc., priority 2001, dated 2004)
